{
  "source": "patent US20180305408A1",
  "about": "“COMPOUNDS FOR INDUCING TISSUE FORMATION AND USES THEREOF” (HISTIDE AG, priority 2015, published 2018)",
  "tested_on": "Human epithelial cells",
  "assay": "Wound healing scratch test, collective cell migration",
  "assay_type": "cell-based",
  "conditions": "after 18 hours of culture",
  "experimental": "Human epithelial cells were cultured with or without GFR-binding compounds as defined herein (SEQ ID NO: 28). A usual scratch test was applied (Nat Protoc 2: 329-333) on a monolayer of these epithelial cells in culture (FIG. 12a). An increase in the cell migration velocity for cells cultured with peptides was observed after 18 hours of culture. The cells migrated collectively and the communication between cells was maintained (FIG. 12b). In fact, the injury has been closed rapidly for the cells cultured with GFR-binding compounds as defined herein.",
  "note": "No end group written: not given here.",
  "data": [
    {"substance": "SEQ ID NO: 28: GFR-binding compound tested for wound healing; sequence not in this part (RPTQVQLRPVQVRKIEYVRKKPKLKKATV; also: cyclic, ring type not given here)", "values": [
      {"measurement": "cell migration velocity", "value": "increase"}
    ]}
  ]
}
